Values after ≈ are worked out from the molar mass of the structure shown.

In data set [1] the test system is Mycobacterium tuberculosis. Nature of the data set: Antibacterial activity against Mycobacterium tuberculosis H37Rv after 7 days by resazurin dye-based assay. In kind it is functional. Conditions: 168 h.
In data set [2] the test system is Mycobacterium tuberculosis. Nature of the data set: Antimycobacterial activity against Mycobacterium tuberculosis H37Rv transfected with pMV261 empty vector after 7 days by resazurin dye-based assay. It counts as functional. Conditions: 168 h.
Data set [3] relates to Mycobacterium tuberculosis. Nature of the data set: Antimycobacterial activity against Mycobacterium tuberculosis H37Rv over expressing InhA after 7 days by resazurin dye-based assay. It counts as functional. To be noted: 168 h.
A short description of data set [4]: Stability in Middlebrook 7H9 medium at 10 ug/ml after 7 days relative to control. In kind it is physicochemical. Conditions: read-out: Stability.

One may read the MIC as the lowest concentration that inhibits growth of the organism. Lower therefore signals greater potency. On to `CC(C)[C@H]1OC(=O)[C@H](C)[C@H](O)[C@H](Cc2cccnc2)NC(=O)[C@@H](NC(=O)c2ncccc2O)[C@@H](C)OC1=O`, for which the results for the MIC in data set [1], in data set [2] and in data set [3] were 3.2 µM (≈ 1.69 µg/mL), 3.1 µM (≈ 1.64 µg/mL) and 24.2 µM (≈ 12.8 µg/mL), respectively.
`CC(C)[C@@H]1OC(=O)[C@H](C)[C@H](O)[C@H](Cc2cccnc2)NC(=O)[C@@H](NC(=O)c2ncccc2O)[C@@H](C)OC1=O` returned an MIC in data set [1] of 26 µM (≈ 13.7 µg/mL).
In data set [1], `C[C@H]1OC(=O)[C@@H]([C@@H](C)c2ccccc2)OC(=O)[C@H](C)[C@H](O)[C@H](Cc2cccnc2)NC(=O)[C@H]1NC(=O)c1ncccc1O` returned a minimum inhibitory concentration (MIC) of 2.6 µM (≈ 1.54 µg/mL).
For the compound `CC[C@@H](C)[C@H]1NC(=O)[C@H](C)[C@H](O)[C@H](Cc2cccnc2)NC(=O)[C@@H](NC(=O)c2ncccc2O)[C@@H](C)OC1=O`, inhibition of growth in data set [1] (MIC) required 185 µM (≈ 100 µg/mL).
As to `CC[C@H]1OC(=O)[C@H](C)[C@H](O)[C@H](Cc2cccnc2)NC(=O)[C@@H](NC(=O)c2ncccc2O)[C@@H](C)OC1=O`, the MIC in data set [1] was 4.9 µM (≈ 2.52 µg/mL); in data set [2], 4.9 µM (≈ 2.52 µg/mL); in data set [3] it was over 19.1 µM.
As to `C[C@H](c1ccccc1)[C@H]1OC(=O)[C@H](C)[C@H](O)[C@H](Cc2cccnc2)NC(=O)[C@@H](NC(=O)c2ncccc2O)[C@@H](C)OC1=O`, inhibition of growth in data set [1] (MIC) required 2.6 µM (≈ 1.54 µg/mL).
On the same count and under the same terms, the same measure for `C[C@H]1OC(=O)[C@H](C)[C@H](O)[C@H](Cc2cccnc2)NC(=O)[C@@H](NC(=O)c2ncccc2O)[C@@H](C)OC1=O`: 49.9 µM (≈ 25 µg/mL); for `CC[C@@H](C)[C@H]1OC(=O)[C@H](C)[C@H](O)[C@H](Cc2cccnc2)NC(=O)[C@@H](NC(=O)c2ncccc2O)[C@@H](C)OC1=O`: 1.5 µM (≈ 0.814 µg/mL).
Same read-out and setting: for `C[C@@H]1C(=O)N[C@H](C2CCCCC2)C(=O)O[C@H](C)[C@H](NC(=O)c2ncccc2O)C(=O)N[C@@H](Cc2cccnc2)[C@@H]1O` the value was 136 µM (≈ 77.1 µg/mL); for `C[C@H]1OC(=O)[C@@H](CO)OC(=O)[C@H](C)[C@H](O)[C@H](Cc2cccnc2)NC(=O)[C@H]1NC(=O)c1ncccc1O`, 96.8 µM (≈ 50 µg/mL).
As for `C[C@H]1OC(=O)[C@@H](Cc2ccccc2)OC(=O)[C@H](C)[C@H](O)[C@H](Cc2cccnc2)NC(=O)[C@H]1NC(=O)c1ncccc1O`, the MIC was 4.3 µM (≈ 2.48 µg/mL) in data set [1], 4.3 µM (≈ 2.48 µg/mL) in data set [2] and over 17.3 µM in data set [3].
For `CC[C@H](C)[C@H]1OC(=O)[C@H](C)[C@H](O)[C@H](Cc2cccnc2)NC(=O)[C@@H](NC(=O)c2ncccc2O)[C@@H](C)OC1=O`, the MIC in data set [1], in data set [2] and in data set [3] was 2.9 µM (≈ 1.57 µg/mL) each time.
With `CC(C)[C@H]1NC(=O)[C@@H](C)[C@@H](O)[C@H](Cc2cccnc2)NC(=O)[C@@H](NC(=O)c2ncccc2O)[C@@H](C)OC1=O`, the MIC in data set [1] is 94.6 µM (≈ 49.9 µg/mL).
For `NNC(=O)c1ccncc1` [ISONIAZID], the MIC in data set [2] was found to be 1.2 µM (≈ 0.165 µg/mL); in data set [3], 37.3 µM (≈ 5.12 µg/mL).
Regarding `CC/C(C)=C1\OC(=O)[C@H](C)[C@H](O)[C@H](Cc2cccnc2)NC(=O)[C@@H](NC(=O)c2ncccc2O)[C@@H](C)OC1=O` [PYRIDOMYCIN], the MIC in data set [1] is 0.55 to 3.05 µM (≈ 0.297 to 1.65 µg/mL); in data set [2] it was 0.74 µM (≈ 0.4 µg/mL); in data set [3], 11.6 µM (≈ 6.25 µg/mL). Moreover, in data set [4], the remaining at 168 h, 10 ug/ml is over 50%.

The values above are taken from ChEMBL document CHEMBL4376876 (J Med Chem, 2020).
